Results published in publication PMC3582500 (PLoS ONE, 2013).

What was measured:
[1] = target: T1, Laconic (LldR from Escherichia coli between mTFP and Venus) (Escherichia coli, UniProt P0ACL7); assay: FRET ratio mTFP/Venus, purified sensor; assay type: binding; conditions: 1 mM citrate without lactate; intracellular buffer pH 7.0
T1 construct: variant 04
T1 sequence (P0ACL7 1-258): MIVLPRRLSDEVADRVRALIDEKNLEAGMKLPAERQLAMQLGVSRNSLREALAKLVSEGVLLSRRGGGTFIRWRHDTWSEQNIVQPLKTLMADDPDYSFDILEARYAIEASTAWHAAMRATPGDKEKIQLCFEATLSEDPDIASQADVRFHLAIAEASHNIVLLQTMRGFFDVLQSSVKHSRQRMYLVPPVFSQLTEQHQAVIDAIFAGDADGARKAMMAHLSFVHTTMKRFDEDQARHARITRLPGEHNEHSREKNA

[2] = target: T1, Laconic (LldR from Escherichia coli between mTFP and Venus); assay: FRET ratio mTFP/Venus, purified sensor; assay type: binding; conditions: 0.25, 1 or 10 mM pyruvate with lactate dose-response; effect by interference with lactate; intracellular buffer pH 7.0

Compound: O=C(O)CC(O)(CC(=O)O)C(=O)O [citrate]
- % increase of FRET ratio at 1 mM [1]: 6%

Compound: CC(=O)C(=O)O [pyruvate]
- FRET ratio mTFP/Venus, purified sensor [2]: at high concentrations, pyruvate blocked the effect of low lactate
